This is an account of results in PubChem BioAssay AID179 (DTP/NCI, 2004).

This assay relates to CEM cells HIV-1 protection, formazan growth assay. Briefly: NCI AIDS Antiviral Assay. Particulars: for IC50: measured here: growth of uninfected CEM cells. Summed up:
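Five concentrations of each compound were applied to infected and uninfected human CEM cells. Protection from HIV-1 was judged from growth measured with a soluble formazan assay.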

Calls of active or inactive are those of the source.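 How the source made its calls: active means compounds giving half or more protection of infected cells from virus-caused growth loss, again on retest; inactive means the rest.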 Where a SMILES comes first, the peptide text is derived from it. The star is where a group is joined. Cbz = O=C(OCc1ccccc1)* Where only a bound is given, the exact number is not on record here.

Regarding `COC(=O)c1cc(C(=CCCCCCBr)c2cc(Cl)c(OC)c(C(=O)OC)c2)cc(Cl)c1OC`, the EC50 (as a rule, the midpoint of the concentration-response curve) was more than 4.79 µM and the IC50 – broadly, the concentration that inhibits the measured activity by half – was more than 4.79 µM.
On to `CCOP(=O)(OCC)/C(C#N)=C/c1ccc(CO)o1`, for which the EC50 is more than 871 µM and the IC50 came out at 178 µM.
With `CN(C)CCCNC(=O)c1nc(NC(=O)c2nc(NC(=O)c3nc(NC(=O)c4ccc(C(=O)Nc5cn(C)c(C(=O)Nc6cn(C)c(C(=O)Nc7cn(C)c(C(=O)NCCCN(C)C)n7)n6)n5)nc4)cn3C)cn2C)cn1C`, the EC50 is more than 50.1 µM and the IC50 is more than 50.1 µM.
Consider `CC(=O)C(N=Nc1ccc(S(=O)(=O)Nc2ccccn2)cc1)C(=O)Nc1ccccc1C` (centres undefined), for which the EC50 was more than 200 µM and the IC50 was determined as 4.57 µM.
For `CC(NC(=O)CNC(=O)C(N)CO)C(=O)NC(CCC(N)=O)C(=O)NC(CCCCN)C(=O)N1CCCC1C(=O)NC(CCC(=O)O)C(=O)NC(CCC(=O)O)C(=O)NC(CCC(=O)O)C(=O)NC(CO)C(=O)NC(CO)C(=O)NC(CC(N)=O)C(=O)NC(C)C(=O)NC(Cc1cnc[nH]1)C(=O)NC(CO)C(=O)O` (centres undefined) (H-SGAQKPEEESSNAHS-OH; configuration not given here), the EC50 was more than 100 µM and the IC50 is more than 100 µM.
Regarding `O=C(NN=C1CCN(Cc2ccccc2)CC1)C(O)(c1ccccc1)c1ccccc1`, the EC50 is more than 200 µM and the IC50 is more than 200 µM.
For the molecule `CC(C)C1CC=NN1C(=O)OC(C)(C)C` (centres undefined), the EC50 was more than 200 µM and the IC50 is more than 200 µM.
With `CCC(C)C(NC(=O)C(CCC(N)=O)NC(=O)C(CCC(N)=O)NC(=O)C(CO)NC(=O)C(CC(C)C)NC(=O)C(CC(N)=O)NC(=O)C(N)C(C)O)C(=O)NC(CO)C(=O)NC(CO)C(=O)NC(CC(N)=O)C(=O)O` (centres undefined) (H-TNLSQQISSN-OH; configuration not given here), the EC50 is more than 28.8 µM and the IC50 was more than 28.8 µM.
With `COC(=O)C1C(c2ccccc2)=N[C@@H](c2ccccc2)[C@H]1C(=O)OC` (some centres undefined), the EC50 was more than 11.2 µM and the IC50 was more than 11.2 µM.
With `COc1c2c(c(OC)c3c1C(=O)c1ccccc1C3=O)C(=O)CCC2`, the EC50 is more than 8.13 µM and the IC50 is more than 8.13 µM.
For the molecule `Cc1ccc(Nc2nc3[nH]ccc3c(=O)[nH]2)cc1`, the EC50 was more than 200 µM and the IC50 was more than 200 µM.
As to `COc1ccc(C2ON(c3cccc(C)n3)CC=C2C)cc1` (centres undefined), the EC50 is more than 45.7 µM and the IC50 is more than 45.7 µM.
As for `CCCCOC1CC2(c3ccc(OC)cc3)C(=O)c3ccccc3N2O1` (centres undefined), the EC50 was more than 112 µM and the IC50 turned out to be 24 µM.
In the case of `O=C(CN1CCOCC1)c1ccc2c(c1)oc(=O)n2CCN1CCOCC1`, the EC50 was more than 200 µM and the IC50 was more than 200 µM.
Take `CC(c1ccccc1)n1c2ccccc2c2c(N)ncnc21` (centres undefined): the EC50 was more than 200 µM and the IC50 amounted to 17.8 µM.
Take `S=C(Nc1c2c(nc3ccccc13)CCCC2)Nc1c2c(nc3ccccc13)CCCC2`: the EC50 was more than 200 µM and the IC50 was more than 200 µM.
Consider `COc1ccc2c(c1)OC(=O)C(S(=O)(=O)c1ccccc1)C2` (centres undefined), for which the EC50 was more than 295 µM and the IC50 is more than 295 µM.
For `N#Cc1c(O)c(C=Nc2ccc(Cl)cc2)c(=O)n2c1[nH]c1ccccc12`, the EC50 was more than 100 µM and the IC50 was more than 100 µM.
Consider `O=c1[nH]c(Nc2ccccc2)nc2c1ncn2CC(O)CSCCO` (centres undefined), for which the EC50 was more than 200 µM and the IC50 is more than 200 µM.
Take `NC(=O)n1cnc(N)n1`: the EC50 was more than 200 µM and the IC50 was more than 200 µM.
Turning to `COc1ccc(C2=C(c3ccccc3)C(=O)C(c3ccccc3)=C2c2ccccc2)cc1`, the outcome was inactive.
As to `NC1=C(O)/C(=N/NS(=O)(=O)c2ccccc2)C(c2cccc(Cl)c2)O1` (centres undefined), the EC50 was more than 661 µM and the IC50 is 32.4 µM.
The corresponding values for `Cc1ccc2nc3nc(C)c(C)nc3nc2c1` are 1.15 µM and 14.5 µM.
Regarding `Cc1cc2c(cc1C)[n+](=O)c(C(=O)CC(=O)C(=O)Nc1ccccc1C)c(C)n2[O-]`, the EC50 is more than 9.33 µM and the IC50 is more than 9.33 µM.
As for `Cc1cn(C2CC(N=C(N)NO)C(CO)O2)c(=O)[nH]c1=O` (centres undefined), the EC50 was more than 5250 µM and the IC50 stood at 708 µM.
The like results for `CCOP(=O)(OCC)/C(C#N)=C/c1ccc2c(c1)OCO2` were, in that order, more than 427 µM and more than 427 µM.
`COC(=O)/C=C1\C=CC=CC12C(C(=O)OC)c1ccccc1C(C(=O)OC)C2C(=O)OC` (centres undefined): the EC50 was more than 200 µM and the IC50 is more than 200 µM.
Regarding `COc1ccc(C(O)/C(=C/n2ccnc2)c2ccccc2)cc1OC` (centres undefined), the EC50 is more than 537 µM and the IC50 was more than 537 µM.
Turning to `O=C(/C(=C/c1ccc([N+](=O)[O-])cc1)c1ccccc1)c1ccccc1`, the EC50 was more than 8.32 µM and the IC50 was 5.25 µM.
The like results for `O=c1ssc(Cl)c1-c1ccccc1` were, in that order, more than 200 µM and 10.2 µM.
In the case of `CCOC(=O)C(Cl)(NC(=O)c1c(F)c(F)c(F)c(F)c1F)C(F)(F)F` (centres undefined), the result was inactive.
`C/C(CN1C(=O)c2ccccc2C1=O)=N\NS(=O)(=O)c1ccc(Cl)cc1`: the EC50 was more than 457 µM and the IC50 was more than 457 µM.
For the molecule `CCOC(=O)CCC(NC(=O)C(CC(=O)OC)NC(=O)OCc1ccccc1)C(=O)NC(CC(=O)OC)C(=O)NC(CCC(=O)OCC)C(=O)NC(CC(=O)OC)C(=O)NC(CCC(=O)OCC)C(=O)NC(CC(=O)OC)C(=O)NC(CCC(=O)OCC)C(=O)NC(CC(=O)OC)C(=O)NC(CCC(=O)OCC)C(=O)NC(CC(=O)OCC)C(=O)OCC` (centres undefined) (Cbz-D(OMe)E(OEt)D(OMe)E(OEt)D(OMe)E(OEt)D(OMe)E(OEt)D(OMe)E(OEt)D(OEt)-OEt; configuration not given here), the EC50 was more than 50.1 µM and the IC50 is more than 50.1 µM.
Turning to `COc1cc(OC)c(C(=O)[O][Sn]([c]2ccccc2)([c]2ccccc2)[c]2ccccc2)cc1OC`, the EC50 was more than 200 µM and the IC50 came to 0.0631 µM.
With `C[C@@H]1C(=O)CC2C(C)(C)CCC[C@]2(C)[C@@]12CC[C@]1(C=COC1)O2` (some centres undefined), the EC50 was more than 50.1 µM and the IC50 was more than 50.1 µM.
As to `Cc1noc(NS(=O)(=O)c2ccc(NC(=O)c3ccc4nc5ccccc5c(Nc5ccc(S(=O)(=O)Nc6onc(C)c6C)cc5)c4c3)cc2)c1C`, the EC50 is 63.1 µM and the IC50 was determined as 110 µM.
Regarding `CC(=O)n1[nH]c(=O)n(-c2ccc(Cl)cc2)c1=O`, the EC50 was more than 200 µM and the IC50 is more than 200 µM.
On to `CC1=C(O)C(=O)C=C2C1=CC=C1[C@@]2(C)CC[C@@]2(C)C3C[C@@H](C)C(=O)[C@@H](O)[C@]3(C)CC[C@]12C` (some centres undefined), for which the EC50 was more than 1.26 µM and the IC50 came to 0.2 µM.
The corresponding values for `NC1CCC2(O)c3ccccc3C2C1` (centres undefined) are more than 200 µM and more than 200 µM.
Take `CCC(=O)C1=C(OC(C)=O)C2Cc3c(n(C)c4ccccc34)C(C1)N2C` (centres undefined): the result was inactive.
`Cc1nc(-c2cccnc2)sc1C(=O)CC(=O)C(=O)Nc1cccc(NC(=O)C(=O)CC(=O)c2sc(-c3cccnc3)nc2C)n1`: the EC50 was more than 275 µM and the IC50 was found to be 158 µM.
The corresponding values for `COc1ccc(/C=C2\CCc3ccccc3C2=O)cc1` are more than 19.5 µM and 12.6 µM.
Turning to `COC(=O)C1=CC(NC(=O)OCc2ccccc2)C(C(=O)c2ccccc2)C[C@@H]1Sc1ccccc1` (some centres undefined), the result was inactive.
In the case of `OC1(c2ccccc2)c2ccccc2NC2=NCCN21` (centres undefined), the EC50 is more than 200 µM and the IC50 amounted to 110 µM.
